{
  "source": "paper PMC4113009",
  "about": "“Dihydroisoxazole inhibitors of Anopheles gambiae seminal transglutaminase AgTG3” (Malaria Journal, 2014)",
  "key": {"[1]": {"biological_target": "AgTG3 (Anopheles gambiae, UniProt D2K8K8)", "sequence (D2K8K8 entry or part of it)": "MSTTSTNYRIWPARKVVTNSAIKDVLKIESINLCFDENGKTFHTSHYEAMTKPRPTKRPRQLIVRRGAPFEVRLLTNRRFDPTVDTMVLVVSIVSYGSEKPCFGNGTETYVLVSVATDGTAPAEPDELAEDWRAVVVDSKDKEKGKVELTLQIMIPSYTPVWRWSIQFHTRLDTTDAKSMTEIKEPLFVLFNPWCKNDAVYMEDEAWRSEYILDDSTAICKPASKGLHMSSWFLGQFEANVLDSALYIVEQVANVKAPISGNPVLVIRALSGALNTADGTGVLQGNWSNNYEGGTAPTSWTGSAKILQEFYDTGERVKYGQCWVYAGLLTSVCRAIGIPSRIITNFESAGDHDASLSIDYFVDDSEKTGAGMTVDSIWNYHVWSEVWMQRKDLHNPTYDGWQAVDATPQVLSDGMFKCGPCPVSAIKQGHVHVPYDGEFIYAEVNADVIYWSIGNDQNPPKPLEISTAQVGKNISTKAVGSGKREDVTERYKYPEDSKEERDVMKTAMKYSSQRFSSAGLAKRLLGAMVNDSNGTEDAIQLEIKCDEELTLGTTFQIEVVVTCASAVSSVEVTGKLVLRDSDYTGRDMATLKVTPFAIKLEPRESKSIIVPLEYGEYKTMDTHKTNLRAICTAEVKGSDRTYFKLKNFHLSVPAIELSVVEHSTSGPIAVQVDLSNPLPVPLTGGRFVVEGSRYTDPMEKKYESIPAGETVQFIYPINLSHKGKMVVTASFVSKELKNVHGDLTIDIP", "test": "AgTG3 plugin cross-linking assay (SDS-PAGE, FITC-CAD)", "type": "biochemical", "conditions": "100 μM inhibitor, 5 mM CaCl2, intensity of high MW bands", "experimental": "Recombinant AgTG3 was pre-incubated with 100 μM inhibitors overnight at room temperature. AgTG3, with and without pretreatment with inhibitors (1 μg), was added to plugin-C (20 μg) and 0.5 mM FITC-cadaverine (FITC-CAD) in 25 mM HEPES, pH 7.5, 10 mM CaCl2, 1 mM DTT. The reaction was incubated at room temperature for 2 h and quenched by heat denaturation of the proteins in the presence of Laemmli buffer. The extent of cross-linking was analysed by sodium dodecyl sulphate-polyacrylamide gel electrophoresis (SDS-PAGE). The gel was scanned using Alpha Imager 2200 software.\nAdditional assays were performed to examine whether compounds 1 and 3 would inhibit the cross-linking of plugin-C by AgTG3 in solution, with FITC-CAD for fluorescent detection of plugin-C. Results were assessed by SDS/PAGE and UV illumination to detect FITC-CAD (Figure 7). […] In the presence of enzyme, substrate and calcium a ladder of fluorescent bands of increasing molecular weight (MW) is observed (lane 4), corresponding to cross-linked oligomers of plugin also labeled by FITC-CAD. […] However, the levels of AgTG3 in solution assays are higher in the cross-linking assay than the primary screen. The levels of plugin-C were also higher, which competes with slow-binding irreversible inhibitors such as 1 and 3 for the active site of AgTG3.\nFigure 7 Inhibition of plugin cross-linking by DHI inhibitors. Fluorescent image of SDS-PAGE for FITC-cadaverine labeling and cross-linking of plugin by AgTG3. Lanes (1–4): (1) AgTG3, (2) Plugin-C, (3) AgTG3 and plugin-C, (4) AgTG3, plugin-C, and 5 mM CaCl2. Lanes (5–8): AgTG3, plugin-C, 5 mM CaCl2 and (5) 10 mM EDTA, (6) 50 mM IA, (7) 100 μM 1, (8) 100 μM 3. (below) Coomassie stain indicating relative levels of monomeric Plugin-C."}, "[2]": {"biological_target": "T1, recombinant tobacco etch virus (TEV) protease (Tobacco etch virus, UniProt P04517)", "T1 construct": "recombinant tobacco etch virus (TEV) protease", "T1 sequence (P04517 2038-2279)": "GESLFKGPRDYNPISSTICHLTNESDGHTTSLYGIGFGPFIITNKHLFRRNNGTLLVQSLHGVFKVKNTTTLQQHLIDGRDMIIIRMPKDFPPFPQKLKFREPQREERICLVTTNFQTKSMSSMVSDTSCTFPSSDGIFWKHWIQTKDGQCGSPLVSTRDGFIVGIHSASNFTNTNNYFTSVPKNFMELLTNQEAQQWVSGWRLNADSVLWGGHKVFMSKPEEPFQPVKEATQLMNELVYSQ", "test": "Cysteine protease inhibition assay, TEV protease (GST-gp78 cleavage, SDS-PAGE)", "type": "biochemical", "conditions": "3 at 100 μM, compared to a DMSO control", "experimental": "The activity of recombinant tobacco etch virus (TEV) protease was determined by cleavage of a fusion protein containing a TEV cleavage site between GST and a 17 kDa fragment of human gp78. TEV and GST-gp78 were incubated at 37°C for 10 min at a substrate:enzyme mass ratio of 10:1. The reaction was stopped by adding 3× loading buffer (150 mM Tris–HCl pH 6.8, 300 mM DTT, 6% (w/v) SDS, 0.06% (w/v) bromophenol blue, 30% (v/v) glycerol). Samples were heated at 95°C for 3 min and separated by 4–20% gradient SDS-PAGE.\nTransglutaminases and cysteine proteases have a similar catalytic mechanism involving an active site cysteine and formation of a thioacyl intermediate. […] To test this hypothesis, the inhibition of two cysteine proteases, human caspase-1 and recombinant tobacco etch virus (TEV) protease by 3 at 100 μM were tested using a chromogenic and SDS-PAGE assay, respectively (Figure 9). […] Neither human caspase-1 nor TEV are endogenous proteins in A. gambiae, which may well contain other endogenous targets of 1–3, not least the two other transglutaminases in the A. gambiae genome."}},
  "data": [
    {"smiles": "O=C(N[C@@H](Cc1c[nH]c2ccccc12)C(=O)NC[C@@H]1CC(Br)=NO1)OCc1cnc2ccccc2c1", "values": [
      {"measurement": "Inhibition of plugin-C cross-linking by AgTG3", "setting": "[1]", "result": "to a lesser extent"},
      {"measurement": "Inhibition of TEV protease", "setting": "[2]", "result": "no inhibition of the protease"}
    ]}
  ]
}
